For orientation: IC50 means the concentration that inhibits the measured activity by half.

Each structure is given as a SMILES string.

One test deals with PGD2.
Experiment: not given
The following applies: dosed intranasally, phase I/II study, allergic rhinitis; cited from earlier work.
On to `Oc1cccc(Nc2ncc(F)c(Nc3cccc(O)c3)n2)c1` [Example R112], for which the “decrease in PGD2” value is “statistically significant decrease”.

A further test deals with rhSYK (Homo sapiens, UniProt P43405). In words: biochemical.
Settings: not given
`Cc1cc(Nc2nccc(C(C)(C)O)n2)cc(-c2cnc(C3(O)CCC(C(N)=O)C(C)(C)C3)s2)c1` (centres unmarked) [Example 119-127] had an IC50 of under 100 nM.
On the same count and under the same terms, next, `Cc1cc(Nc2nccc(C(F)(F)F)n2)cc(-c2cnc([C@]3(O)CC[C@@H](C(N)=O)C(C)(C)C3)s2)c1` [Example 119-131]: under 100 nM; `COc1ccnc(Nc2cc(C)cc(-c3cnc([C@@]4(O)CC[C@H](C(=O)NCC#N)C(C)(C)C4)s3)c2)n1` [Example 119-133]: under 100 nM; `COc1ccnc(Nc2cc(C)cc(-c3cnc([C@@]4(O)CC[C@H](C(=O)NCc5cccnc5)C(C)(C)C4)s3)c2)n1` [Example 119-134]: under 100 nM.
Same read-out and setting: next, `Cc1cc(Nc2nccc(C)n2)cc(-c2cnc([C@@]3(O)CC[C@H](C(=O)NCCCN4CCCC4=O)C(C)(C)C3)s2)c1` [Example 119-135]: under 100 nM; `Cc1cc(Nc2nccc(C(F)(F)F)n2)cc(-c2cnc([C@@]3(O)CC[C@H](C(=O)Nc4cccnc4)C(C)(C)C3)s2)c1` [Example 119-136]: under 100 nM.
Same read-out and setting: next, `Cc1cc(Nc2nccc(C(F)(F)F)n2)cc(-c2cnc([C@]3(O)CC[C@@H](C(=O)N4CCc5cc(O)c(O)cc5C4)CC3)s2)c1` [Example 119-138]: under 100 nM.
Consider `COc1cccc(N2CCN(C(=O)C3CCC(O)(c4ncc(-c5cc(C)cc(Nc6nccc(C(F)(F)F)n6)c5)s4)CC3)CC2)c1` (centres unmarked) [Example 119-139], for which the IC50 is under 100 nM.
On the same count and under the same terms, next, `COCc1cc(Nc2nccc(C(F)(F)F)n2)cc(-c2cnc(C3(O)CCC(C(N)=O)C(C)C3)s2)c1` (centres unmarked) [Example 119-142]: under 100 nM; `COCc1cc(Nc2nccc(C(F)(F)F)n2)cc(-c2cnc([C@@]3(O)CC[C@H](C(N)=O)C(C)(C)C3)s2)c1` [Example 119-143]: under 100 nM; `CC1(C)C[C@@](O)(c2ncc(-c3cc(Cl)cc(Nc4nccc(C(F)(F)F)n4)c3)s2)CC[C@@H]1C(N)=O` [Example 119-144]: under 100 nM.
Compound `NC(=O)[C@H]1CC[C@](O)(c2ncc(-c3cc(Cl)cc(Nc4nccc(C(F)(F)F)n4)c3)s2)CC1` [Example 119-145] gave an IC50 of under 100 nM.
Take `Cc1cc(Nc2nccc(C(F)(F)F)n2)cc(-c2cnc([C@]3(O)CC[C@@H](C(=O)NC(CO)CO)CC3)s2)c1` [Example 191-33]: the IC50 was under 100 nM.
On the same count and under the same terms, next, `Cc1cc(Nc2nccc(C(F)(F)F)n2)cc(-c2cnc(C3(O)CCC(C(=O)NCc4cccnc4)CC3)s2)c1` (centres unmarked) [Example 191-52]: under 100 nM.
Still for that read-out and setting: next, `Cc1cc(Nc2nccc(C(F)(F)F)n2)cc(-c2cnc([C@]3(O)CC[C@@H](C(=O)NCc4ccncc4)CC3)s2)c1` [Example 191-53]: under 100 nM; `CC1(C)CC(O)(c2ncc(-c3cc(CO)cc(Nc4nccc(C(F)(F)F)n4)c3)s2)CCC1C(N)=O` (centres unmarked) [Example 191-141]: under 100 nM.
